On the set-up of data set [1]: species or system mouse (male). The following applies: mouse, in vivo, po, 4320 min. As to the method:
1. Determination of the minimum toxic dose
Male mice weighing 20-25 g received oral administrations of maximum doses of 300 mg/kg of the test substance. The animals were carefully observed for signs of toxicity for 3 hours. In addition, all signs and deaths over a period of 72 hours after administration were recorded. Accompanying signs were likewise observed and recorded. If death or signs of severe toxicity were observed, further mice were given increasingly lower doses until signs of toxicity no longer appeard. The lowest dose which caused death or signs of severe toxicity is indicated in following Table A as the minimum toxic dose. The example numbers listed in Table A refer to the following preparation examples.

The target of data set [2] is neutral endopeptidase (NEP), purified NEP (E.C.3.4.24.11) (Homo sapiens, UniProt P08473). The data set is described as follows: In vitro investigation of the NEP-inhibitory effect (hydrolytic degradation of met-enkephalin). It counts as biochemical. The following applies: substrate met-enkephalin, 37° C., pH 7.4. As to the method: 2. In vitro investigation of the NEP-inhibitory effect of the substances and determination of the affinity of the substance molecules for the enzyme molecule. […] The Ki (inhibitor constant) of each substance was determined as a measure of its inhibitory activity. The Ki of a test substance with enzyme-inhibiting activity is the dissociation constant for the enzyme/test substance complex or the (enzyme/substrate)--test substance complex and has units of concentration.
neutral endopeptidase (NEP), purified NEP (E.C.3.4.24.11), sequence (P08473 whole entry): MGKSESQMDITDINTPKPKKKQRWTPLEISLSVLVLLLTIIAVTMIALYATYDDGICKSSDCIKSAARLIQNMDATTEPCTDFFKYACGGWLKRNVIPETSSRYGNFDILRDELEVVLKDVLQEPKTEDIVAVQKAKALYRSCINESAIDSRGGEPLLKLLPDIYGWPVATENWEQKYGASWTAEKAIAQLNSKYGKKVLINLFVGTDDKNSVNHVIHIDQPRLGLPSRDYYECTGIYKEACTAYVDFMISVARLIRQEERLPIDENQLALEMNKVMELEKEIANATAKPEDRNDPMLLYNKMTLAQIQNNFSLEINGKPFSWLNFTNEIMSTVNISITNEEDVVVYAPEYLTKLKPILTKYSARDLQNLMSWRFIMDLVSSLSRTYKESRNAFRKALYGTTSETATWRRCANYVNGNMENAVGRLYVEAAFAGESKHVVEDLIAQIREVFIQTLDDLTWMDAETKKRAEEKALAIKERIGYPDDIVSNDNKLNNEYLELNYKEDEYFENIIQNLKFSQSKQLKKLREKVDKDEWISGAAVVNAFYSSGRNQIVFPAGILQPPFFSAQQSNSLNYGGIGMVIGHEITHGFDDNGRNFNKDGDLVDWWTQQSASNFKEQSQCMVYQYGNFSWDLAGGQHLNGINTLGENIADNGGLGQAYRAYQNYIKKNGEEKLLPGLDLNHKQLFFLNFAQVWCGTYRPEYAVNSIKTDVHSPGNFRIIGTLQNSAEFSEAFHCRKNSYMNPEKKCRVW
To carry out the test, respective 100 μl samples of various incubation solutions containing 10 ng of purified NEP (E.C.3.4.24.11) and in each case different amounts of test substance and of substrate (met-enkephalin)and 50 mM tris buffer (=tris(hydroxymethyl)aminomethane/HCl, pH 7.4) were prepared.
For each test substance, 24 different incubation solutions were prepared with 3 different test substance concentrations respectively combined with met-enkephalin contents of 2, 5, 7, 10, 12, 15, 40 and 100 μm.
In each test, two types of control incubation solutions were also processed, on the one hand enzyme controls which contain no test substance, and on the other hand substrate controls which contain neither enzyme nor test substance.
The incubation solutions were incubated in a shaking water bath at 37° C. for 45 minutes. The enzyme reaction was started after 15 minutes by adding the substrate (metenkephalin) and was stopped at the end of the incubation time by heating at 95° C. for 5 minutes. The stopped incubation solution was then centrifuged at 12,000×g for 3 minutes, and the concentrations of unreacted substrate and of hydrolysis products formed by the enzymatic reaction were determined in the supernatant. For this purpose, samples of each of the respective supernatants were fractionated by HPLC (high-pressure liquid chromatography) on hydrophobized silica gel, and the products of the enzymatic reaction and unreacted substrate were determined by photometry at a wavelength of 205 nm. The HPLC separation was carried out using a column (4.6×250 mm) which contains Encapharm™ 100 RP18 having an average particle size of 5 μm as reversed phase separation material. The solvent flow rate was 1.4 ml/min, and the column was warmed to 40° C. Mobile phase A was 5 mM H3 PO4, pH 2.5, and mobile phase B was acetonitrile +1% 5 mM H3 PO4, pH 2.5.
The Ki for each test substance was calculated in a known manner from the concentrations of hydrolysis products and unreacted substrate measured in the various samples. […] The example numbers indicated in Table B refer to the following preparation examples.

The target of data set [3] is T1, endothelin-converting enzyme (ECE) (Homo sapiens, UniProt P42892).
T1 construct: expressed in transfected cells; host or cells: CHO cells (Chinese hamster ovary), membrane fraction
T1 sequence (P42892 1-770): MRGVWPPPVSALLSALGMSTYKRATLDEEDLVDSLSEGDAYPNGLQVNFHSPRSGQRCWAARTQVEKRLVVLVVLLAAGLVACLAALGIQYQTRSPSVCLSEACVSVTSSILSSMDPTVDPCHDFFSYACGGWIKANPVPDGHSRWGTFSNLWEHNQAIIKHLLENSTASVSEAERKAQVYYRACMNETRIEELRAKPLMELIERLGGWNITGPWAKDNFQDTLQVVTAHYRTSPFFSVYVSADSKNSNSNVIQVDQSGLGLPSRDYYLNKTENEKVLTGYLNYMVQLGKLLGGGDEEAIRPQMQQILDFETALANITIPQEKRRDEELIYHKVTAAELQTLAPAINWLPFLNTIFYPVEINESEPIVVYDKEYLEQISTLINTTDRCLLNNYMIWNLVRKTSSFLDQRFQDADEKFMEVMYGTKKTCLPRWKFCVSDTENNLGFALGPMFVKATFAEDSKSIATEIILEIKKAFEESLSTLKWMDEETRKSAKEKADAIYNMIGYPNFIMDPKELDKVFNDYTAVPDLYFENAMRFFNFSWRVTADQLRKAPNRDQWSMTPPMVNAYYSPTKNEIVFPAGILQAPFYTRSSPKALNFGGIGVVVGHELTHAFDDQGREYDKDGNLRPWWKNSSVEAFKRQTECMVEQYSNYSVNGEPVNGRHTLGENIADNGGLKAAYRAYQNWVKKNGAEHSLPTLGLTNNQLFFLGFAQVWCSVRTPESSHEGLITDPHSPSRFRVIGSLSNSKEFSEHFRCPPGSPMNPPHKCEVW
In words: In vitro investigation of the ECE-inhibitory effect (recombinant human ECE in CHO cell membrane fraction). The following applies: 24 μM synthetic peptide substrate, pH 7.0, 37° C., 60 min. It counts as biochemical. As to the method:
3. In vitro investigations of the ECE-inhibitory effect of the substances.
The IC50 of the substances was determined as a measure of their inhibitory activity. The IC50 of a test substance with enzyme-inhibiting activity is the concentration of the test substance at which 50% of the enzymatic activity of ECE is inhibited.
Preparation of the ECE-containing endothelial cell membrane fraction.
Egg cells from the Chinese hamster (Chinese hamster ovary cells, hereinafter CHO cells) in which there was recombinant expression of human ECE [see Schmidt et al., Federation of European Biochemical Societies Letters 356 238-43 (1994)] were lysed, and the cell membranes were removed by centrifugation at 10,000×g for 10 min. The cell membranes were washed by resuspension and repeated centrifugation three times. The ECE-containing cell membrane fraction was resuspended in 100 mM tris/HCl buffer (tris(hydroxymethyl)aminomethane/HCl, pH 7.0, containing 250 mM NaCl) and stored frozen at -70° C. before the enzyme test.
To carry out the test, respective 100 μl samples of various incubation solutions each containing 5 μg protein from an ECE-containing preparation of endothelial cell membranes and different amounts of test substance and 24 μM substrate (synthetic peptide: H2 N-Asp-Ile-Ala-Trp-Phe-Asn-Thr-Pro-Glu-His-Val-Val-Pro-Tyr-Gly-Leu-Gly-COOH) (SEQ ID NO:1) and 100 mM tris buffer (tris(hydroxymethyl)aminomethane/HCl, pH 7.0, containing 250 mM sodium chloride) were prepared. […]
The incubation solutions were preincubated at 37° C. for 15 min before the substrate was added. […] The hydrolysis products H2N-Asp-Ile-Ala-Trp-COOH (SEQ ID NO:2) and H2 N-Phe-Asn-Thr-Pro-Glu-His-Val-Val-Pro-Tyr-Gly-Leu-Gly-COOH (SEQ ID NO:3) formed from the substrate by the enzymatic reaction were determined with the aid of high-pressure liquid chromatography (HPLC). […] The IC50 was calculated for each test substance in a known manner from the concentrations of hydrolysis products measured in the various samples.

A short description of data set [4]: In vivo determination of the effect on diuresis/natriuresis in volume-loaded rats. The following applies: volume loading 120 minutes after administration, urine collected over 60 min. The arrangement: species or system rat (male Wistar). The protocol:
4. In vivo determination of the effect of the substances on diuresis/natriuresis in volume-loaded rats.
The in vivo activity was investigated in volume-loaded rats. In this experiment a high cardiac filling pressure was caused by infusion of isotonic sodium chloride solution, which results in ANP release and thus diuresis/natriuresis.
The tests are carried out with male Wistar rats having a body weight of 200-400 g. Under neuroleptanalgesia (fentanyl; Hypnorm™, manufactured by Janssen), a catheter was placed in the right femoral vein for the baseline infusion and the volume loading with isotonic sodium chloride solution. After the abdominal cavity had been opened, a second catheter was inserted into the bladder, and the urethra was tied off so that it was possible to measure the urine volume, natriuresis and kaliuresis.
The abdominal cavity was closed again and the animals received a continuous infusion with sodium chloride solution (0.5 ml/100 g body weight) throughout the 2 hours of the test. After an equilibration period of 30 minutes, in a preliminary phase before the test substance was given, urine samples were collected three times over a period of 10 minutes in each case. These preliminary values ("predrug" values) were determined in order to check that there was a continuous flow of urine in the test animals.
The solutions containing test substances were then administered intravenously (bolus injection into the femoral vein) or orally (by gavage) to groups of 10 rats each. With both modes of administration, in each case one control group of animals received only placebo solutions which contained no active substance. 5 Minutes after i.v. administration or 120 minutes after oral administration of the substances, the rats were loaded with an increased volume of sodium chloride solution i.v. (2 ml/100 g body weight in 2 minutes) and the urine was collected over a period of 60 min. The amounts of urine produced in this period were determined, and the sodium and potassium contents therein were measured. The increase in excretion which took place under volume loading by comparison with the preliminary values was deduced from the resulting amounts of urine.
Furthermore, the amounts of sodium and potassium excreted under volume loading after administration of test substance are also indicated as a percentage of the amounts of sodium and potassium excreted under volume loading after placebo administration.

Twelve compounds from US5677297A, “Benzazepine-, benzoxazepine- and benzothiazepine-n-acetic acid derivatives, process for their preparation and pharmaceutical compositions containing them” (Solvay Pharmaceuticals GmbH, priority 1995, dated 1997) can be followed below.

The structures appear in SMILES notation. Where only a bound is given, the exact number is not on record here.

Regarding `O=C(O)CN1C(=O)[C@@H](NC(=O)C2(C[C@@H](CCc3ccccc3)C(=O)O)CCCC2)CCc2ccccc21` [Example 37], the Minimum toxic dose in data set [1] is given as over 300 mg/kg. One may read the Ki as the equilibrium dissociation constant of an inhibitor or competing ligand from its target. A lower Ki goes with higher affinity. Take `O=C(O)CN1C(=O)C(NC(=O)C2(CC(CCc3cccc4ccccc34)C(=O)O)CCCC2)CCc2ccccc21` (stereo not drawn) [Example 24]: the Minimum toxic dose in data set [1] is listed as over 300 mg/kg. In data set [2], this compound returned a Ki of 1 nM. `O=C(O)CN1C(=O)[C@@H](NC(=O)C2(CC(CCOc3ccc(F)cc3)C(=O)O)CCCC2)CSc2ccccc21` (stereo partly drawn) [Example 13, (3R)-3-{1-[2'-Carboxy-4'-(4-fluorophenoxy)butyl]cyclopentane-1-carbonylamino}-4-oxo-3,4-dihydro-1,5-benzothiazepine-5(2H)-acetic acid]: the inhibition constant (Ki) in data set [2] was 0.76 nM. On the same count and under the same terms, with `COCCOC[C@H](CC1(C(=O)N[C@H]2CCc3ccccc3N(CC(=O)O)C2=O)CCCC1)C(=O)O` [Example 22] the figure was 2.15 nM. In general, IC50 refers to the concentration that gives 50% inhibition. As to `O=C(O)CN1C(=O)C(NC(=O)C2(CC(Cc3cccc4ccccc34)C(=O)O)CCCC2)CCc2ccccc21` (stereo not drawn) [Example 38], the IC50 in data set [3] came out at 2200 nM. Turning to `O=C(O)CN1C(=O)C(NC(=O)C2(CC(Cc3ccccc3)C(=O)O)CCCC2)CCc2ccccc21` (stereo not drawn) [Example 27], the Minimum toxic dose in data set [1] was over 300 mg/kg. In data set [1], `O=C(O)CN1C(=O)C(NC(=O)C2(CC(CCc3ccccc3)C(=O)O)CCCC2)CCc2ccccc21` (stereo not drawn) [Example 6, 3-[1-(2'-Carboxy-4'-phenylbutyl)cyclopentane-1-carbonylamino]-2,3,4,5-tetrahydro-2-oxo-1H-1-benzazepine-1-acetic acid] had a Minimum toxic dose of over 300 mg/kg. Also, the affinity in data set [2] corresponds to a Ki of 0.67 nM. `O=C(O)CN1C(=O)[C@@H](NC(=O)C2(CC(Cc3ccccc3)C(=O)O)CCCC2)CCc2ccccc21` (stereo partly drawn) [Example 29]: the inhibition constant Ki in data set [2] came to 1.08 nM.

As to `CCOC(=O)[C@H](CCc1ccccc1)CC1(C(=O)N[C@H]2CCc3ccccc3N(CC(=O)O)C2=O)CCCC1` [Example 4, (3S,2'R)-3-{1-[2'-(Ethoxycarbonyl)-4'-phenylbutyl]cyclopentane-1-carbonylamino}-2,3,4,5-tetrahydro-2-oxo-1H-1-benzazepine-1-acetic acid], the “Increase in the excretion of urine under volume loading after administration of test substance as % based on the increase after placebo administration” value in data set [4] (15 mg/kg p.o.) is recorded as 196.5%; in data set [4] (51 mg/kg p.o.), 271%. For the compound `COCCOC[C@H](CC1(C(=O)N[C@H]2COc3ccccc3N(CC(=O)O)C2=O)CCCC1)C(=O)O` [Example 11, (3S,2'S)-3-{1-[2'-Carboxy-3'-(2-methoxyethoxy)propyl]cyclopentane-1-carbonylamino}-4-oxo-3,4-dihydro-1,5-benzoxazepine-5(2H)-acetic acid], the inhibition constant Ki in data set [2] was determined as 2.55 nM. On to `O=C(O)CN1C(=O)C(NC(=O)C2(CC(CCOc3ccc(F)cc3)C(=O)O)CCCC2)CCc2ccccc21` (stereo not drawn) [Example 26], for which the inhibitory constant (Ki) in data set [2] came to 1.22 nM.

As to `O=C(O)CN1C(=O)[C@@H](NC(=O)C2(C[C@@H](CCc3cccc4ccccc34)C(=O)O)CCCC2)CCc2ccccc21` [Example 39], the IC50 in data set [3] came out at 520 nM.
